Experimental data published in publication PMC12133982, “Predominant T-cell epitopes of SARS-CoV-2 restricted by multiple prevalent HLA-B and HLA-C allotypes in Northeast Asia” (Frontiers in Immunology, 2025).
Peptide text beside a SMILES is read from it.

Columns and labels:
HLA-C0102 = HLA-C0102 (Homo sapiens, UniProt P10321, A176E/A330V/A35S/A97T/C350S/D114A/D33F/L171W/L180R/L218V/M285V/M309V/M331V/P208H/Q277E/Q291P/R121W/R243W/R30K/S123C/S140Y/S297R/T329A/T363A/V272M/V319A); assay: Competitive peptide binding assay, CIR-C0102
Method: (§1) Then, competitive peptide binding assays were performed.

HLA-C0602 = HLA-C0602 (Homo sapiens, UniProt P10321, A176E/A330V/C350S/L171W/L180W/L218V/M285V/M309V/M331V/N104K/P208H/Q277E/Q291P/R121W/S101N/S123Y/S297R/T329A/T363A/V319A/V328M); assay: Competitive peptide binding assay, CIR-C0602
HLA-B3501 = HLA-B3501 (Homo sapiens, UniProt P01889, A329T/A93T/A95T/C349S/D201E/D98Y/E176V/E187L/E204Q/E69T/I218V/K202T/L119I/Q94N/R155S/R180L/S121R/S35A/S48A/T118I/V127L/V306I/V36M/Y140S/Y91F); assay: Competitive peptide binding assay, CIR-B3501; conditions: HMy2.CIR-B3501 cells, reference Cy5-[…], class from inhibition at 5 and 15 μM, flow cytometry MFI; read-out: Binding affinity with HLA-B3501
Method: as §1

HLA-B4601 = HLA-B4601 (Homo sapiens, UniProt P01889, A329T/A93R/C349S/D201E/E100V/E187L/E204Q/E69M/E70A/I90K/K202T/N87E/R155S/R180W/S121R/S35A/S48A/V306I/V36M/Y140S); assay: Competitive peptide binding assay, CIR-B4601; conditions: for IC50: HMy2.CIR-B4601 cells, reference Cy5-[…], class from inhibition at 5 and 15 μM, flow cytometry MFI, read-out: Binding affinity with HLA-B4601; for inhibition at 5 µM: read-out: Inhibition % of Cy5-reference peptide binding, CIR-B4601, 5μM peptide; for inhibition at 15 µM: read-out: Inhibition % of Cy5-reference peptide binding, CIR-B4601, 15μM peptide
Method: as §1

HLA-B1301 = HLA-B1301 (Homo sapiens, UniProt P01889, A65T/A93T/A95T/D138N/D201E/D98Y/E176V/E204Q/E69M/E70A/G107R/K202T/L105A/L119I/N104T/N87E/Q94N/R106L/R155S/R169L/R180L/S101N/S121R/S35A/S48T/T118I/V127L/V36M/Y140L/Y91S); assay: Competitive peptide binding assay, CIR-B1301; conditions: HMy2.CIR-B1301 cells, reference Cy5-[…], class from inhibition at 5 and 15 μM, flow cytometry MFI; read-out: Binding affinity with HLA-B1301
Method: as §1

HLA-B5801 = HLA-B5801 (Homo sapiens, UniProt P01889, A329T/C349S/D201E/D98Y/E176V/E187L/E204Q/E69T/G107R/I218V/I90N/K202T/L105A/L119I/N104I/N87E/Q89R/Q94S/R106L/R155S/R180L/R86G/S101N/S121R/S35A/S48A/T118I/V127L/V306I/V36M/Y140S/Y91M); assay: Competitive peptide binding assay, CIR-B5801; conditions: HMy2.CIR-B5801 cells, reference Cy5-[…], class from inhibition at 5 and 15 μM, flow cytometry MFI; read-out: Binding affinity with HLA-B5801
Method: as §1

HLA-B1501 = HLA-B1501 (Homo sapiens, UniProt P01889, A329T/A93T/A95T/C349S/D201E/D98Y/E187L/E204Q/E69M/E70A/K202T/N87E/Q94N/R155S/R180W/S121R/S35A/S48A/V306I/V36M/Y140S/Y91S); assay: Competitive peptide binding assay, CIR-B1501; conditions: HMy2.CIR-B1501 cells, reference Cy5-[…], class from inhibition at 5 and 15 μM, flow cytometry MFI; read-out: Binding affinity with HLA-B1501
Method: as §1

HLA-B1502 = HLA-B1502 (Homo sapiens, UniProt P01889, A329T/A93T/A95T/C349S/D201E/D98Y/E187L/E204Q/E69M/E70A/H137Y/K202T/L119I/Q94N/R155S/R180L/S121R/S35A/S48A/T118I/V306I/V36M/Y140S/Y91S); assay: Competitive peptide binding assay, CIR-B1502; conditions: HMy2.CIR-B1502 cells, reference Cy5-[…], class from inhibition at 5 and 15 μM, flow cytometry MFI; read-out: Binding affinity with HLA-B1502
Method: as §1

[1] = read-out: Inhibition % of Cy5-reference peptide binding

SMILES	IC50 (HLA-C0602) [µM]	IC50 (HLA-B3501) [µM]	IC50 (HLA-B1301) [µM]	IC50 (HLA-B1501) [µM]	IC50 (HLA-B1502) [µM]	other results
CC(C)C[C@H](NC(=O)[C@H](C)NC(=O)[C@@H](NC(=O)[C@@H](N)CC(C)C)[C@@H](C)O)C(=O)N[C@@H](CCCNC(=N)N)C(=O)N[C@@H](CC(C)C)C(=O)N[C@@H](CS)C(=O)N[C@@H](C)C(=O)N[C@@H](Cc1ccc(O)cc1)C(=O)O [Epitope M51] (H-LTALRLCAY-OH; N-terminus and C-terminus assumed)	< 5					IC50 (HLA-C0102; HMy2.CIR-C0102 cells, reference Cy5-[…], class from inhibition at 5 and 15 μM, flow cytometry MFI, read-out: Binding affinity with HLA-C0102): 5 to 15 µM; inhibition at 5 µM (HLA-C0102; [1]): 42.9%; inhibition at 15 µM (HLA-C0102; [1]): 77.6%
CC(C)C[C@H](NC(=O)[C@@H](NC(=O)[C@@H]1CCCN1C(=O)[C@H](CC(N)=O)NC(=O)[C@H](CC(=O)O)NC(=O)[C@H](Cc1ccccc1)NC(=O)[C@H](CCCNC(=N)N)NC(=O)[C@@H](N)CCCCN)C(C)C)C(=O)N1CCC[C@H]1C(=O)N[C@@H](Cc1ccccc1)C(=O)O [Epitope M125] (H-KRFDNPVLPF-OH; N-terminus and C-terminus assumed)	5 to 15					
CC(C)[C@H](NC(=O)CNC(=O)[C@H](CCC(=O)O)NC(=O)[C@H](CCCNC(=N)N)NC(=O)[C@@H]1CCCN1C(=O)[C@H](Cc1ccccc1)NC(=O)[C@H](Cc1c[nH]cn1)NC(=O)[C@H](C)N)C(=O)N[C@@H](Cc1ccccc1)C(=O)O [Epitope M157] (H-AHFPREGVF-OH; N-terminus and C-terminus assumed)	> 15					
CC[C@H](C)[C@H](N)C(=O)N[C@H](C(=O)N[C@@H](CC(=O)O)C(=O)N[C@@H](C)C(=O)N[C@H](C(=O)N[C@@H](CC(=O)O)C(=O)N[C@@H](CS)C(=O)N[C@@H](C)C(=O)N[C@@H](CC(C)C)C(=O)O)C(C)C)[C@@H](C)O [Epitope M161, ITDAVDCAL] (H-ITDAVDCAL-OH; N-terminus and C-terminus assumed)	> 15					
CC(C)[C@H](NC(=O)[C@H](Cc1ccc(O)cc1)NC(=O)[C@H](CCC(=O)O)NC(=O)[C@H](Cc1ccccc1)NC(=O)[C@@H](N)[C@@H](C)O)C(=O)N[C@@H](CO)C(=O)N[C@@H](CCC(N)=O)C(=O)N1CCC[C@H]1C(=O)N[C@@H](Cc1ccccc1)C(=O)O [Epitope M180] (H-TFEYVSQPF-OH; N-terminus and C-terminus assumed)	> 15					
CC[C@H](C)[C@H](NC(=O)[C@H](C)NC(=O)[C@@H](N)CC(C)C)C(=O)N[C@@H](CC(C)C)C(=O)N[C@H](C(=O)N[C@@H](C)C(=O)N[C@@H](CC(C)C)C(=O)N[C@@H](CCCNC(=N)N)C(=O)N[C@@H](CC(C)C)C(=O)O)[C@@H](C)O [Epitope Y7] (H-LAILTALRL-OH; N-terminus and C-terminus assumed)		5 to 15				IC50 (HLA-B4601): > 15 µM
CC[C@H](C)[C@H](NC(=O)[C@@H](NC(=O)[C@H](CC(C)C)NC(=O)[C@H](CCC(=O)O)NC(=O)[C@H](CO)NC(=O)[C@H](CCC(=O)O)NC(=O)[C@H](CC(C)C)NC(=O)[C@H](CC(C)C)NC(=O)[C@@H]1CCCN1C(=O)[C@@H](N)CCCNC(=N)N)C(C)C)C(=O)O [Epitope Y43] (H-RPLLESELVI-OH; N-terminus and C-terminus assumed)			5 to 15			
CC(C)C[C@H](NC(=O)[C@H](CC(C)C)NC(=O)[C@H](CC(C)C)NC(=O)[C@H](C)NC(=O)[C@H](CC(C)C)NC(=O)[C@H](C)NC(=O)[C@H](C)NC(=O)[C@H](CC(=O)O)NC(=O)CN)C(=O)O [Epitope Y65] (H-GDAALALLL-OH; N-terminus and C-terminus assumed)		> 15	< 5	5 to 15		IC50 (HLA-B5801): 5 to 15 µM
CC[C@H](C)[C@H](NC(=O)[C@H](CCC(N)=O)NC(=O)[C@@H](N)CC(C)C)C(=O)N1CCC[C@H]1C(=O)N[C@@H](Cc1ccccc1)C(=O)N[C@@H](C)C(=O)N[C@@H](CCSC)C(=O)N[C@@H](CCC(N)=O)C(=O)N[C@@H](CCSC)C(=O)O [Epitope Y81] (H-LQIPFAMQM-OH; N-terminus and C-terminus assumed)			< 5	> 15		IC50 (HLA-B4601): > 15 µM; inhibition at 5 µM (HLA-B4601): 9.21%; inhibition at 15 µM (HLA-B4601): 44%
CC(C)[C@H](NC(=O)CNC(=O)[C@H](Cc1c[nH]cn1)NC(=O)[C@@H]1CCCN1C(=O)[C@H](C)NC(=O)[C@H](CO)NC(=O)[C@@H](N)CCC(N)=O)C(=O)N[C@H](C(=O)N[C@@H](Cc1ccccc1)C(=O)O)C(C)C [Epitope Y146] (H-QSAPHGVVF-OH; N-terminus and C-terminus assumed)		> 15		< 5	5 to 15	
CC(C)C[C@H](NC(=O)[C@@H](NC(=O)[C@H](CCCNC(=N)N)NC(=O)[C@H](CO)NC(=O)[C@@H](NC(=O)[C@H](C)NC(=O)[C@@H](N)C(C)C)[C@@H](C)O)[C@@H](C)O)C(=O)N[C@@H](CO)C(=O)N[C@@H](Cc1ccc(O)cc1)C(=O)O [Epitope Y158] (H-VATSRTLSY-OH; N-terminus and C-terminus assumed)		5 to 15		< 5	5 to 15	IC50 (HLA-B5801): > 15 µM
CC(C)C[C@H](NC(=O)[C@@H](N)CCC(N)=O)C(=O)N[C@H](C(=O)N1CCC[C@H]1C(=O)N[C@H](C(=O)N[C@@H](Cc1c[nH]c2ccccc12)C(=O)N[C@@H](CCCNC(=N)N)C(=O)N[C@H](C(=O)N[C@@H](Cc1ccc(O)cc1)C(=O)O)C(C)C)[C@@H](C)O)[C@@H](C)O [Epitope Y175] (H-QLTPTWRVY-OH; N-terminus and C-terminus assumed)		> 15	> 15	> 15	5 to 15	IC50 (HLA-B5801): < 5 µM
CC[C@H](C)[C@H](NC(=O)CNC(=O)[C@H](CC(=O)O)NC(=O)[C@H](CCCCN)NC(=O)[C@H](CC(N)=O)NC(=O)[C@H](C)NC(=O)CNC(=O)[C@H](Cc1ccc(O)cc1)NC(=O)[C@@H]1CCCN1C(=O)[C@@H](N)CC(C)C)C(=O)O [Epitope Y273] (H-LPYGANKDGI-OH; N-terminus and C-terminus assumed)				> 15	5 to 15	IC50 (HLA-B5801): > 15 µM; IC50 (HLA-B4601): > 15 µM; inhibition at 5 µM (HLA-B4601): 11.6%; inhibition at 15 µM (HLA-B4601): 31%
CC[C@H](C)[C@H](N)C(=O)N[C@@H](C)C(=O)N[C@@H](CC(N)=O)C(=O)N[C@@H](CCC(N)=O)C(=O)N[C@@H](Cc1ccccc1)C(=O)N[C@@H](CC(N)=O)C(=O)N[C@@H](CO)C(=O)N[C@@H](C)C(=O)N[C@H](C(=O)O)[C@@H](C)CC [Epitope Y283] (H-IANQFNSAI-OH; N-terminus and C-terminus assumed)			> 15	5 to 15	> 15	
